Test results taken from patent publication US7417036B2, “Crystal form of adefovir dipivoxil and its preparation” (Tianjin Kinsly Pharmaceutical Co. Ltd., priority 2002, dated 2008).
Where “and” joins values, the source holds several entries; their conditions need not be identical. Equal values may be shown once.

Assay: Kinetic studies of the plasma concentration in animals with different crystalline forms of AD (oral, monkeys; adefovir measured in serum by HPLC)
Format: in vivo, Macaques
Protocol: The experiment was carried out by orally administering to monkeys the drugs in order to investigate the in vivo absorption of two crystalline forms of AD: the novel crystalline AD of the present invention produced by Tianjin Kinsly pharmaceutical R & D Co. Ltd. and crystalline form I of AD prepared according to the method of GILEAD SCIENCES INC. The experiment provides useful clinical references for the application of novel crystalline AD.
Tablets of novel crystalline form of AD, white, each of which contains 10 mg of adefovir, Tianjin Kinsly pharmaceutical R&D Co. Ltd., batch number 020320.
Tablets of AD crystalline form I, white, each of which contains 10 mg of adefovir, Tianjin Kinsly pharmaceutical R&D Co. Ltd., batch number 020225.
Macaques, weighing from 5 kg to 8 kg (certificate No: 2001-03, approved by Beijing Forestry Administration in the document of [2001] 83) were provided by Xie'er Animal Health Caring Science and Technology Co. Ltd (Beijing, P. R. China).
As the pro-drug of adefovir, AD is the bis-pivaloyloxymethyl ester of adefovir, which increases the in vivo bioavailability of orally administered adefovir. AD can be rapidly metabolized into PMEA, rendering it undetectable in blood. Thus the concentration of its parent compound was measured.
Mobile phase: 0.2% phosphoric acid-methanol-B7 (97:3:0.5) degassed and filtrated through 0.45 μm milipore filter.
Stationary phase: C18-column (4.6×250 mm) packed with 5μ fillers, Tianjin Tianhe Chromatogram Inc, the column temperature from 18° C. to 22° C.
Detection: the UV detection wavelength λ=260 nm (0.01AUFS)
A given volume of serum was taken and an equal volume of 10% trichloroacetic acid was added. The mixture was shaken thoroughly and kept still for more than 30 min to precipitate the proteins, then centrifuged at 10000 rpm for 2 min. The precipitates were separated and 30 μL of the supernat was removed for injection.
The experiment was started one week after intestinal worms were dispelled from the animals. Eight animals were randomly assigned into two groups, each consisting of four animals. The animals were fasted for 12 h and were orally administered the novel crystalline form of AD for one group or crystalline form I of AD for another group at a dose of 20 mg/kg together with 200 ml of water. 2 hours after administration, the animals were fed in a fixed quantity. 2.0 ml samples of whole blood were collected from the elbow veins before administration and 10, 20, 30, 45 min and 1, 2, 4, 6, 8, 12, and 24 h after administration. The serum was separated and freeze-stored for measurement. A cross-experiment was done similarly 2 weeks later.
The pharmacokinetic parameters were calculated based on the plasma concentrations at different time points. The time to peak concentration (Tpeak) and the maximum concentration (Cmax) used the measured value. The terminal phase elimination rate constant (Ke) was obtained by fitting the linear section of the curve of logarithm of the plasma concentration of drug in terminal phase versus time and the terminal phase clearance half life time (T1/2) was calculated by dividing 0.693 by Ke. AUC0-t was calculated according to the trapezoid rule.
Apparent volume of distribution (Vd)=dosage/(AUCXKe);
Total Clearance (CL)=dosage/AUC.
Comparison of the data of the two crystalline form: Data of Cmax, Ke, T1/2 and AUC0-t were statistically processed by t test, while Tpeak was processed by non-parametric test. In addition, Comparison of bio-equivalence was carried out based on Cmax and AUC0-t by using two one-sided t test.
Eight macaques were assigned into two groups, group for the novel crystalline form and the group for crystalline form I. The animals were administered according to an open randomized crossover scheme. Afterward, adefovir concentrations in serum were measured at the predetermined time points. […]

[1] = adefovir, oral 20 mg/kg, macaques, average of 8 animals (ASD row)
[2] = adefovir, oral 20 mg/kg, macaques, individual animal No. 1-8, listed as Crystalline form I, 20 mg/kg

CC(C)(C)C(=O)OCOP(=O)(COCCn1cnc2c(N)ncnc21)OCOC(=O)C(C)(C)C [crystalline form I, reference compound]
Adefovir concentrations in serum (Plasma concentrations versus time), average (0.167 h after oral administration, 20 mg/kg, macaques, average of 8 animals (ASD row)): 77.0 ng/mL
Adefovir concentrations in serum (Plasma concentrations versus time) (0.167 h after oral administration, 20 mg/kg, macaques, individual animal No. 1-8, 20 mg/kg): 66.6 ng/mL and 90.1 ng/mL
Adefovir concentrations in serum (Plasma concentrations versus time), average (0.333 h after oral administration, 20 mg/kg, macaques, average of 8 animals (ASD row)): 235.4 ng/mL
Adefovir concentrations in serum (Plasma concentrations versus time) (0.333 h after oral administration, 20 mg/kg, macaques, individual animal No. 1-8, 20 mg/kg): 148.0 ng/mL
Adefovir concentrations in serum (Plasma concentrations versus time), average (0.5 h after oral administration, 20 mg/kg, macaques, average of 8 animals (ASD row)): 546.7 ng/mL
Adefovir concentrations in serum (Plasma concentrations versus time) (0.5 h after oral administration, 20 mg/kg, macaques, individual animal No. 1-8, 20 mg/kg): 397.9 ng/mL
Adefovir concentrations in serum (Plasma concentrations versus time), average (0.75 h after oral administration, 20 mg/kg, macaques, average of 8 animals (ASD row)): 350.9 ng/mL
Adefovir concentrations in serum (Plasma concentrations versus time) (0.75 h after oral administration, 20 mg/kg, macaques, individual animal No. 1-8, 20 mg/kg): 305.2 ng/mL
Adefovir concentrations in serum (Plasma concentrations versus time), average (1 h after oral administration, 20 mg/kg, macaques, average of 8 animals (ASD row)): 285.2 ng/mL
Adefovir concentrations in serum (Plasma concentrations versus time) (1 h after oral administration, 20 mg/kg, macaques, individual animal No. 1-8, 20 mg/kg): 196.6 ng/mL
Adefovir concentrations in serum (Plasma concentrations versus time), average (2 h after oral administration, 20 mg/kg, macaques, average of 8 animals (ASD row)): 230.5 ng/mL
Adefovir concentrations in serum (Plasma concentrations versus time) (2 h after oral administration, 20 mg/kg, macaques, individual animal No. 1-8, 20 mg/kg): 161.3 ng/mL
Adefovir concentrations in serum (Plasma concentrations versus time), average (4 h after oral administration, 20 mg/kg, macaques, average of 8 animals (ASD row)): 177.5 ng/mL
Adefovir concentrations in serum (Plasma concentrations versus time) (4 h after oral administration, 20 mg/kg, macaques, individual animal No. 1-8, 20 mg/kg): 89.3 ng/mL
Adefovir concentrations in serum (Plasma concentrations versus time), average (6 h after oral administration, 20 mg/kg, macaques, average of 8 animals (ASD row)): 146.8 ng/mL
Adefovir concentrations in serum (Plasma concentrations versus time) (6 h after oral administration, 20 mg/kg, macaques, individual animal No. 1-8, 20 mg/kg): 102.0 ng/mL
Adefovir concentrations in serum (Plasma concentrations versus time), average (8 h after oral administration, 20 mg/kg, macaques, average of 8 animals (ASD row)): 116.7 ng/mL
Adefovir concentrations in serum (Plasma concentrations versus time) (8 h after oral administration, 20 mg/kg, macaques, individual animal No. 1-8, 20 mg/kg): 82.9 ng/mL
Adefovir concentrations in serum (Plasma concentrations versus time), average (12 h after oral administration, 20 mg/kg, macaques, average of 8 animals (ASD row)): 86.0 ng/mL
Adefovir concentrations in serum (Plasma concentrations versus time) (12 h after oral administration, 20 mg/kg, macaques, individual animal No. 1-8, 20 mg/kg): 70.1 ng/mL and 72.6 ng/mL
Adefovir concentrations in serum (Plasma concentrations versus time), average (24 h after oral administration, 20 mg/kg, macaques, average of 8 animals (ASD row)): 44.3 ng/mL
Adefovir concentrations in serum (Plasma concentrations versus time) (24 h after oral administration, 20 mg/kg, macaques, individual animal No. 1-8, 20 mg/kg): 36.8 ng/mL and 56.6 ng/mL
Vd (adefovir apparent volume of distribution, oral 20 mg/kg, macaques, individual animal No. 1-8, 20 mg/kg): 125.6 L and 107.3 L and 85.8 L and 95.0 L and 145.1 L and 76.6 L and 158.8 L and 99.9 L
average AUCO-T (adefovir, oral 20 mg/kg): 2723.82 ng·h/mL
average Tpeak (adefovir, oral 20 mg/kg): 0.53 h
average apparent volume of distribution (Vc) (adefovir, oral 20 mg/kg): 17.50 L
average elimination half-life time (adefovir, oral 20 mg/kg): 10.5 h
average peak concentration (adefovir, oral 20 mg/kg): 551.21 ng/mL
Cmax, average (adefovir, oral 20 mg/kg, macaques, average of 8 animals): 551.21 ng/mL
CL, average [1]: 7723.2 mL/h
Ke, average [1]: 0.072 L/h
T1/2, average [1]: 10.5 h
Tpeak, average [1]: 0.53 h
Vd, average [1]: 117.0 L
AUC0-t, average (adefovir, oral 20 mg/kg, macaques, average of 8 animals, listed as Crystalline form I, 20 mg/kg): 2723.8 ng·h/mL
AUC0-t, average (adefovir, oral 20 mg/kg, macaques, average of 8 animals, listed as Form I, 20 mg/kg): 2724 ng·h/mL
AUC0-t [2]: 2214.1 ng·h/mL and 2624.4 ng·h/mL and 2188.0 ng·h/mL and 3647.5 ng·h/mL and 3379.4 ng·h/mL and 3452.3 ng·h/mL and 2317.8 ng·h/mL and 1967.0 ng·h/mL
Cmax [2]: 402.2 ng/mL and 785.4 ng/mL and 366.2 ng/mL and 698.1 ng/mL and 915.4 ng/mL and 432.2 ng/mL and 412.3 ng/mL and 397.9 ng/mL
T1/2 [2]: 9.6 h and 9.8 h and 6.5 h and 12.0 h and 17.0 h and 9.2 h and 12.8 h and 6.8 h
Tpeak [2]: 0.5 h (7×) and 0.75 h
Cmax (adefovir, oral 20 mg/kg, macaques, individual animal No. 1-8, listed as Form I, 20 mg/kg): 689.1 ng/mL
